For this experiment, the target named is T1, MCH receptor (Homo sapiens, UniProt Q99705).
T1 construct: expressed in transfected cells; host or cells: CHO cells
Kind of experiment: MCH Receptor Binding Assay ([125I]-MCH, SPA, membranes from CHO cells expressing the MCH receptor). Particulars: CHO cell membranes. Here is the method: MCH Receptor Binding Assay:
Membranes from CHO cells expressing the MCH receptor were prepared by lysing cells with 5 mM HEPES for 15 min at 4C. Cell lysates were centrifuged ([…], 15 min) and the pellet was resuspended in 5 mM HEPES. For each 96-well plate (Microlite, Dynex Technologies), 1 mg of cell membranes were incubated with 10 mg of wheat germ agglutinin SPA beads (Amersham) for 5 min at 4 C in a volume of 10 ml of binding buffer (25 mM HEPES, 10 mM MGCl2, 10 mM NaCl, 5 mM MnCl2, 0.1% BSA). The membrane/bead mixture was centrifuged (1500×g, 3.5 min), the supernatant was aspirated, and the pellet was resuspended in 10 ml binding buffer. The centrifugation, aspiration and resuspension were then repeated. The membrane/bead mixture (100 μl) was then added to 96-well plates containing 50 μof 500 pM [^125I]-MCH (NEN) and […] of the appropriate concentration of compound (4× the desired final concentration). Nonspecific binding was determined by including 1 μM MCH in the binding reaction. The binding reaction was incubated at room temperature for 2 h. Plates were then analyzed in a TOPCOUNT microplate scintillation counter (Packard). Data was analyzed and Ki values were determined using GraphPad Prism.

SMILES strings stand for the structures. Where two headings read alike, the source gives them in different places.

T1 sequence (Q99705 whole entry): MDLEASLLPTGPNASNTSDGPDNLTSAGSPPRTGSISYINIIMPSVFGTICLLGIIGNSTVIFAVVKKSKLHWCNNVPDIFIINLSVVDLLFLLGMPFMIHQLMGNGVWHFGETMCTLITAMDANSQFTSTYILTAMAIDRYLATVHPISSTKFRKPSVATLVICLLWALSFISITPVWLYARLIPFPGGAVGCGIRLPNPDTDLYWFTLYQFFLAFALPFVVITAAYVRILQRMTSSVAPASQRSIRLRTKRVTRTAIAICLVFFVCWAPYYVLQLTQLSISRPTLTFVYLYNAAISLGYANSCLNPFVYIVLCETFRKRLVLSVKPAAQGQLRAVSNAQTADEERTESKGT

Broadly, the Ki is a dissociation constant, usually derived from enzyme kinetics or from competition with a known ligand. On to `CC(C)N1CCC2(CC1)c1ccc(-c3cccc(C#N)c3)cc1CCN2CC(=O)Nc1cc(Cl)cc(Cl)c1` [Compound 7a], for which the Ki (read-out: Activity (Ki class)) is less than 0.03 µM.

For `CC(C)N1CCC2(CC1)c1ccc(-c3cccc(C#N)c3)cc1CCN2CC(=O)Nc1ccc(F)c(Cl)c1` [Compound 7b], the Ki (read-out: Activity (Ki class)) was 0.03 to 0.1 µM.

In the case of `CC(C)N1CCC2(CC1)c1ccc(-c3cccc(C#N)c3)cc1CCN2CC(=O)Nc1cc(F)cc(F)c1` [Compound 7c], the Ki (read-out: Activity (Ki class)) lay in the range of 0.03 to 0.1 µM.

As to `CC(C)N1CCC2(CC1)c1ccc(-c3cccc(C#N)c3)cc1CCN2CC(=O)Nc1ccc(Cl)c(C(F)(F)F)c1` [Compound 7d], under “read-out: Activity (Ki class)”, the Ki was more than 0.1 µM.

As to `CC(C)N1CCC2(CC1)c1ccc(-c3cccc(C#N)c3)cc1CCN2CC(=O)Nc1ccc(Cl)c(Cl)c1` [Compound 7e], the inhibition constant (Ki) (read-out: Activity (Ki class)) is more than 0.1 µM.

As for `N#Cc1cccc(-c2ccc3c(c2)CCN(CC(=O)Nc2ccc(F)c(Cl)c2)C32CCN(CC3CC3)CC2)c1` [Compound 8a], the Ki (read-out: Activity (Ki class)) was less than 0.03 µM.

For the compound `N#Cc1cccc(-c2ccc3c(c2)CCN(CC(=O)Nc2ccc(Cl)cc2)C32CCN(CC3CC3)CC2)c1` [Compound 8b], where the note is “read-out: Activity (Ki class)”, the Ki was more than 0.1 µM.

Take `N#Cc1cccc(-c2ccc3c(c2)CCN(CC(=O)Nc2cccc(Cl)c2)C32CCN(CC3CC3)CC2)c1` [Compound 8c]: the Ki (read-out: Activity (Ki class)) was 0.03 to 0.1 µM.

Turning to `N#Cc1cccc(-c2ccc3c(c2)CCN(CC(=O)Nc2ccc(F)c(F)c2)C32CCN(CC3CC3)CC2)c1` [Compound 8d], the Ki (read-out: Activity (Ki class)) was 0.03 to 0.1 µM.

Regarding `N#Cc1cccc(-c2ccc3c(c2)CCN(CC(=O)Nc2ccc(F)c(C(F)(F)F)c2)C32CCN(CC3CC3)CC2)c1` [Compound 8e], the Ki (read-out: Activity (Ki class)) is less than 0.03 µM.

`N#Cc1cccc(-c2ccc3c(c2)CCN(CC(=O)Nc2cc(F)cc(C(F)(F)F)c2)C32CCN(CC3CC3)CC2)c1` [Compound 8f]: the inhibitory constant (Ki) (read-out: Activity (Ki class)) fell in the range of 0.03 to 0.1 µM.

`N#Cc1cccc(-c2ccc3c(c2)CCN(CC(=O)Nc2cc(F)cc(F)c2)C32CCN(CC3CC3)CC2)c1` [Compound 8g]: the Ki (read-out: Activity (Ki class)) was in the range of 0.03 to 0.1 µM.

As to `N#Cc1cccc(-c2ccc3c(c2)CCN(CC(=O)Nc2ccc(Cl)c(Cl)c2)C32CCN(CC3CC3)CC2)c1` [Compound 8h], the inhibition constant Ki (read-out: Activity (Ki class)) is more than 0.1 µM.

Take `N#Cc1cccc(-c2ccc3c(c2)CCN(CC(=O)Nc2ccc(Cl)c(C(F)(F)F)c2)C32CCN(CC3CC3)CC2)c1` [Compound 8i]: where the note is “read-out: Activity (Ki class)”, the Ki is more than 0.1 µM.

For `N#Cc1cccc(-c2ccc3c(c2)CCN(CC(=O)Nc2cc(Cl)cc(Cl)c2)C32CCNCC2)c1` [Compound 10c], the inhibition constant Ki (read-out: Activity (Ki class)) lay in the range of 0.03 to 0.1 µM.

`N#Cc1cccc(-c2ccc3c(c2)CCN(CC(=O)Nc2cc(Cl)cc(Cl)c2)C32CCN(C3CCCCCC3)CC2)c1` [Compound 11a]: the Ki by setting is: (read-out: Activity (Ki class)) less than 0.03 µM; (read-out: Ki value) 0.011 µM.

For `N#Cc1cccc(-c2ccc3c(c2)CCN(CC(=O)Nc2cc(Cl)cc(Cl)c2)C32CCN(C3CCC3)CC2)c1` [Compound 11b], the inhibition constant (Ki) (read-out: Activity (Ki class)) is less than 0.03 µM.

Turning to `N#Cc1cccc(-c2ccc3c(c2)CCN(CC(=O)Nc2cc(Cl)cc(Cl)c2)C32CCN(CC3CC3)CC2)c1` [Compound 11c], for the setting “read-out: Activity (Ki class)”, the inhibitory constant (Ki) was less than 0.03 µM.

With `N#Cc1cccc(-c2ccc3c(c2)CCN(CC(=O)Nc2cc(Cl)cc(Cl)c2)C32CCN(C3CCCC3)CC2)c1` [Compound 11d], the inhibition constant (Ki) (read-out: Activity (Ki class)) was less than 0.03 µM.

For the compound `N#Cc1cccc(-c2ccc3c(c2)CCN(CC(=O)Nc2cc(Cl)cc(Cl)c2)C32CCN(CCO)CC2)c1` [Compound 11e], the inhibition constant (Ki) (read-out: Activity (Ki class)) was in the range of 0.03 to 0.1 µM.

For `CN1CCC2(CC1)c1ccc(-c3cccc(C#N)c3)cc1CCN2CC(=O)Nc1cc(Cl)cc(Cl)c1` [Compound 11f], under “read-out: Activity (Ki class)”, the inhibition constant Ki was 0.03 to 0.1 µM.

Turning to `CCN1CCC2(CC1)c1ccc(-c3cccc(C#N)c3)cc1CCN2CC(=O)Nc1cc(Cl)cc(Cl)c1` [Compound 11g], the inhibitory constant (Ki) (read-out: Activity (Ki class)) is 0.03 to 0.1 µM.

For `N#Cc1cccc(-c2ccc3c(c2)CCN(CC(=O)Nc2cc(Cl)cc(Cl)c2)C32CCN(C3CCOCC3)CC2)c1` [Compound 11h], for the setting “read-out: Activity (Ki class)”, the Ki is less than 0.03 µM.

In the case of `N#Cc1cccc(-c2ccc3c(c2)CCN(CC(=O)Nc2cc(Cl)cc(Cl)c2)C32CCN(Cc3ccoc3)CC2)c1` [Compound 11i], for the setting “read-out: Activity (Ki class)”, the Ki was 0.03 to 0.1 µM.

Take `N#Cc1cccc(-c2ccc3c(c2)CCN(CC(=O)Nc2cc(Cl)cc(Cl)c2)C32CCN(C3CCSC3)CC2)c1` (stereo not shown) [Compound 11j]: for the setting “read-out: Activity (Ki class)”, the inhibition constant Ki lay within 0.03 to 0.1 µM.

Turning to `CC(C)N1CCC2(CC1)c1ccc(-c3cccc(C#N)c3)cc1CCN2Cc1nc2ccccc2[nH]1` [Compound 12a], the inhibition constant Ki (read-out: Activity (Ki class)) is more than 0.1 µM.

Regarding `N#Cc1cccc(-c2ccc3c(c2)CCN(Cc2nc4cc(Cl)c(Cl)cc4[nH]2)C32CCNCC2)c1` [Compound 12d], the Ki (read-out: Activity (Ki class)) was more than 0.1 µM.

In the case of `N#Cc1cccc(-c2ccc3c(c2)CCN(Cc2nc4cc(F)c(Cl)cc4[nH]2)C32CCNCC2)c1` [Compound 12e], the inhibition constant (Ki) (read-out: Activity (Ki class)) is more than 0.1 µM.

For the compound `N#Cc1cccc(-c2ccc3c(c2)CCN(Cc2nc4cc(Cl)c(Cl)cc4[nH]2)C32CCN(CC3CC3)CC2)c1` [Compound 12f], the Ki (read-out: Activity (Ki class)) is more than 0.1 µM.

On to `CC(C)(C)OC(=O)N1CCC2(CC1)c1ccc(-c3cccc(C#N)c3)cc1CCN2CC(=O)Nc1cc(Cl)cc(Cl)c1` [Compound 30a], for which, for the setting “read-out: Activity (Ki class)”, the inhibitory constant (Ki) is more than 0.1 µM.

`CC(=O)N1CCC2(CC1)c1ccc(-c3cccc(C#N)c3)cc1CCN2CC(=O)Nc1cc(Cl)cc(Cl)c1` [Compound 30b]: the inhibition constant (Ki) (read-out: Activity (Ki class)) is more than 0.1 µM.

Turning to `CS(=O)(=O)N1CCC2(CC1)c1ccc(-c3cccc(C#N)c3)cc1CCN2CC(=O)Nc1cc(Cl)cc(Cl)c1` [Compound 30c], the Ki (read-out: Activity (Ki class)) is more than 0.1 µM.

Consider `CN(C)S(=O)(=O)N1CCC2(CC1)c1ccc(-c3cccc(C#N)c3)cc1CCN2CC(=O)Nc1cc(Cl)cc(Cl)c1` [Compound 30d], for which the inhibition constant (Ki) (read-out: Activity (Ki class)) is more than 0.1 µM.

Values taken from patent US7109207B2, “Spirosubstituted piperidines as selective melanin concentrating hormone receptor antagonists for the treatment of obesity” (Schering Corporation, priority 2002, dated 2006).
